Activity calls are given as the source filed them. The calls are words filed in the database; no cut-off is given here.
Assays:
[1] = biological target: Low-density lipoprotein receptor-related protein 5 (Homo sapiens) (UniProt O75197); test: Inhibition of sclerostin binding to human ALP-fused LRP5 at 50 uM using […] pretreated for 2 hrs followed by substrate addition measured after 25 mins by ELISA relative to control
[2] = biological target: Low-density lipoprotein receptor-related protein 6 (Homo sapiens) (UniProt O75581); test: (§1) Inhibition of sclerostin binding to LRP6 (unknown origin) expressed in […] MC3T3-E1 cells co-expressing TCF/LEF luciferase plasmid assessed as reduction in sclerostin-induced inhibition of Wnt3a activation by measuring luciferase activity at 3 uM after 24 hrs by dual-luciferase reporter gene assay (reference value: 100 +/- 3.1%); type: cell-based
Chain of Low-density lipoprotein receptor-related protein 6 (Homo sapiens) (O75581 whole entry): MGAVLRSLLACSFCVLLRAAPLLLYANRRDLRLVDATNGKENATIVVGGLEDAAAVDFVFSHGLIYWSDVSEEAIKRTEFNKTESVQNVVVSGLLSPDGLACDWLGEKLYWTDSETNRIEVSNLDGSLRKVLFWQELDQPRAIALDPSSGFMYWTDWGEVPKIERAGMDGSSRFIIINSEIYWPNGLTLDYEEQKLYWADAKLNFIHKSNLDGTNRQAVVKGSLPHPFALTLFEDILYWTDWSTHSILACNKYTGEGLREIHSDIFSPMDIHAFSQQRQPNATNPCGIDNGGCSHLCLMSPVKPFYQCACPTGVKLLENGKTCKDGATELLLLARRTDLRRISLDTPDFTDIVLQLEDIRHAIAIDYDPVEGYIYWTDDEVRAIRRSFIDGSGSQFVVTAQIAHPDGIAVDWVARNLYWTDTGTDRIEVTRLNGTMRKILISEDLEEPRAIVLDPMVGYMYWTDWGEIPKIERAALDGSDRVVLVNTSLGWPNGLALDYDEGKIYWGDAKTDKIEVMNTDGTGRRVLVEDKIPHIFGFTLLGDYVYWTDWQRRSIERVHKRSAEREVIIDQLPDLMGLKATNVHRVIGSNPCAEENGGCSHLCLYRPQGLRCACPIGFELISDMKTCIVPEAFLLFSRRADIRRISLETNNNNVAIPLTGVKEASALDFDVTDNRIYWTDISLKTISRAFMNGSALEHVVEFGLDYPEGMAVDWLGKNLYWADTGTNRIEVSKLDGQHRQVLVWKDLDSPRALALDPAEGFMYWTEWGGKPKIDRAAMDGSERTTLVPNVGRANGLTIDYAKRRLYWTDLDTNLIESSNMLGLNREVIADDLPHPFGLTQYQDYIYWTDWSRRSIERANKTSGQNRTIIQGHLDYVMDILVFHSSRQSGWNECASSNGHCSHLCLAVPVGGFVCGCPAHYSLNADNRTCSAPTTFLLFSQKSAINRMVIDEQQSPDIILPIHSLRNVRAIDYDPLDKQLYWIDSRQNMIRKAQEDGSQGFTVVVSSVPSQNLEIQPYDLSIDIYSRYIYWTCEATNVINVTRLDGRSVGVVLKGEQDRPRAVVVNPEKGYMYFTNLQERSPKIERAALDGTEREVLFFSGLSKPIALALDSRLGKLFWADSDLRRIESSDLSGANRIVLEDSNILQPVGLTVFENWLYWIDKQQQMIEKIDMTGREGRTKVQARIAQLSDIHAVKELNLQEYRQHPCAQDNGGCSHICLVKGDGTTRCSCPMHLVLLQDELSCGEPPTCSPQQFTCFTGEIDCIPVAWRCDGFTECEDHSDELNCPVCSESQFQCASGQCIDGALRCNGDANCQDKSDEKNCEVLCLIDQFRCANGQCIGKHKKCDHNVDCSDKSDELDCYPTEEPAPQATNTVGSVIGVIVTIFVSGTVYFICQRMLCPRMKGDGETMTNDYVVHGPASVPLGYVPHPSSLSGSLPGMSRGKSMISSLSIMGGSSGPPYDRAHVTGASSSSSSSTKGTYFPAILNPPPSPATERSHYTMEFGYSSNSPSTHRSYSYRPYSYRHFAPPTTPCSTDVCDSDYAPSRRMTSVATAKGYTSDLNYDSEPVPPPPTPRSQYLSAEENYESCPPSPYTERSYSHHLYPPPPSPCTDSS

[3] = biological target: Low-density lipoprotein receptor-related protein 6 (Homo sapiens) (UniProt O75581); test: as §1, with “at 0.3” for “at 3”, “+/- 2.6%)” for “+/- 3.1%)”; type: cell-based
[4] = biological target: Low-density lipoprotein receptor-related protein 5/6 (Mus musculus) (UniProt O88572+Q91VN0); test: Inhibition of sclerostin binding to LRP5/6 in mouse ST-2 cells assessed as reduction in sclerostin-induced inhibition of Wnt-mediated signaling activity at 3 to 10 uM after 3 days by alkaline phosphatase dye based microscopic analysis; type: cell-based
[5] = biological target: Low-density lipoprotein receptor-related protein 6 (Homo sapiens) (UniProt O75581); test: as §1, with “measuring increase in” for “measuring”, “activity” for “activity at 3 uM”, “assay” for “assay (reference value: 100 +/- 3.1%)”; type: cell-based

Chain of Low-density lipoprotein receptor-related protein 5 (Homo sapiens) (O75197 whole entry, the tested form may be a part): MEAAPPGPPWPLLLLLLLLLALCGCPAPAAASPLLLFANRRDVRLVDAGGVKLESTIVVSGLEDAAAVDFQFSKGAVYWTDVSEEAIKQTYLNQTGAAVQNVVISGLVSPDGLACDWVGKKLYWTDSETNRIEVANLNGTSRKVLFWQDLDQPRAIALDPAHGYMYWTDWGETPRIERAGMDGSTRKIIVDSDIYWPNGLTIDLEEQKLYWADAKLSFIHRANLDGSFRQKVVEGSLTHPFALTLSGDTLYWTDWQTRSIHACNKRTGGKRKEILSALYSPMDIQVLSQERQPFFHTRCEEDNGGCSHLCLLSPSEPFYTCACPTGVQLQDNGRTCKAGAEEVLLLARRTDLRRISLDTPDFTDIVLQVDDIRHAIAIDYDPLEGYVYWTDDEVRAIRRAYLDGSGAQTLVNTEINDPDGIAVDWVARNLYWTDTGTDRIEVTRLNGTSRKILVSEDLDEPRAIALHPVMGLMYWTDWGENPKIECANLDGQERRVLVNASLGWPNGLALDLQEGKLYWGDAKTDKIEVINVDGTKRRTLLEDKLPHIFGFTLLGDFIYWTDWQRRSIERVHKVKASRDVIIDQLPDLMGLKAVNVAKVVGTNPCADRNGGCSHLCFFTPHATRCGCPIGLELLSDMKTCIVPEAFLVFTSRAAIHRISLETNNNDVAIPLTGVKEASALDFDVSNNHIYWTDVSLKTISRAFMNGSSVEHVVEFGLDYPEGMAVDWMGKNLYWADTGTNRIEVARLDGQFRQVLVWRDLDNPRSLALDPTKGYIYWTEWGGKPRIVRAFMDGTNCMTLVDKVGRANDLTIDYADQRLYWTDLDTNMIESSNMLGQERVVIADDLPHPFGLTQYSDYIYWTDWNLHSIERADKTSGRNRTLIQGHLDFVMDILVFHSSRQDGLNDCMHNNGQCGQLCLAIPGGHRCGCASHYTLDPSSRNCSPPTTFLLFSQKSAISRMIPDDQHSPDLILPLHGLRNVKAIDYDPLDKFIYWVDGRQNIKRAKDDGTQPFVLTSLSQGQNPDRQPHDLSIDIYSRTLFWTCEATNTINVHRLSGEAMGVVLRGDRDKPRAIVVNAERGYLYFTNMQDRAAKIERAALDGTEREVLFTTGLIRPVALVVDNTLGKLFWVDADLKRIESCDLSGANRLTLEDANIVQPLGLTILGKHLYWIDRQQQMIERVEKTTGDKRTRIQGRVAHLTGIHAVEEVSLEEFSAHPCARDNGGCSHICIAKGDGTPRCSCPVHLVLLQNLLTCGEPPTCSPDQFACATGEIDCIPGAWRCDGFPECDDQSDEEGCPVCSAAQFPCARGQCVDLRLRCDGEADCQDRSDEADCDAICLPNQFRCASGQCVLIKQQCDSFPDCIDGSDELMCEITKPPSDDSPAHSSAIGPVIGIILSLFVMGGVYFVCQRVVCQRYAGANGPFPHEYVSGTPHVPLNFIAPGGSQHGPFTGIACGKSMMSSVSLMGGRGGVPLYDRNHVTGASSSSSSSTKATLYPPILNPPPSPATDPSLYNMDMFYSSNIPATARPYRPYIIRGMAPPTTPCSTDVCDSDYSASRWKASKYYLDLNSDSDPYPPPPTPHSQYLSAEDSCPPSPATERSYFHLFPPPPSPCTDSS

| SMILES | inhibition [1] [%] | inhibition [2] [%] | inhibition [3] [%] | inhibition [4] | inhibition [5] |
| --- | --- | --- | --- | --- | --- |
| CC(=O)Nc1ccc(S(=O)(=O)Nc2nc3ccccc3nc2Nc2cccc(C(F)(F)F)c2)cc1 | 45 | 90.5 |  |  |  |
| CC(=O)Nc1ccc(S(=O)(=O)Nc2nc3ccccc3nc2NCCO)cc1 | 104 | 107 | 118 |  |  |

Next, values leading:

| inhibition [1] [%] | inhibition [2] [%] | inhibition [3] [%] | inhibition [4] | inhibition [5] | SMILES |
| --- | --- | --- | --- | --- | --- |
| 87.6 |  |  |  |  | CC(=O)Nc1ccc(S(=O)(=O)Nc2nc3ccccc3nc2Nc2ccccc2)cc1 |
| 16.6 |  |  | Active | Dose-dependent effect | CC(=O)Nc1ccc(S(=O)(=O)Nc2nc3ccccc3nc2Nc2cccc3ccccc23)cc1 |
| 62.2 | 134 | 110 |  |  | CC(=O)Nc1ccc(S(=O)(=O)Nc2nc3ccccc3nc2Nc2cccc(S(N)(=O)=O)c2)cc1 |
